Results as given in patent publication US20240264150A1, “METHODS FOR ASSIGNING A PHENOTYPIC SIGNATURE FOR DIAGNOSTIC AND THERAPEUTIC APPLICATIONS” (DEUTSCHES ZENTRUM FÜR NEURODEGENERATIVE ERKRANKUNGEN E.V. …, priority 2020, published 2024).

Assays:
Type in all cases: cell-based, human
[1] = test system: inflammasome activation by LPS+ATP; experiment: Benchmark experiment, 34-plex Luminex cytokine assay; details: for IL1b release (Luminex): LPS+ATP
Source text: (§1) FIG. 24: Added-Value-1. Higher precision and accuracy of the present technology compared to Luminex cytokine assays. We tested the IL1beta- and TNFalpha release performance on the present assay platform (integrated as HTRF assays from cisbio/PerkinElmer into the inventive workflow) (B) in comparison to the Luminex cytokine assay technology (A). […] (2) Due to its higher precision and accuracy, the inventive technology allowed to disclose distinct compound (Cmpd) effects on donor-specific responses which was not achieved by the Luminex technology despite its higher nominal assay ranges as indicated by the upper and lower LoD's (tables on the left in A, B). (3) Despite higher nominal assay ranges of Luminex cytokine tests compared to present technology cytokine release LoD's (dotted lines), donor-specific response ranges were solely resolved by the inventive technology and could not be identified by the Luminex assay. (4) Despite higher nominal assay ranges of Luminex cytokine tests compared to present technology cytokine release LoD's, the inventive technology covered a larger assay window as indicated by the ovals on the TNFa-release box plot y-axes in (A) and (B).
(§2) To benchmark the inventive technology in the context of established state-of-the-art cytokine assays in the field of innate immune response analyses, a product benchmarking experiment was conducted. Towards this end, a 34-plex, off-the-shelf Luminex cytokine assay kit was tested in comparison to the present assay platform which in this embodiment integrates cytokine release data with image-based readout analyses leading to increased knowledge and added scientific value.
(§3) In the benchmarking experiment, innate immune reactions were assessed by classical cytokine release assays, i.e. the Luminex assay technology, and compared to the present platform which allows an in-depth analysis of immune responses by the combination and integration of cytokine release data and image-based multi-parametric readouts. Since the present assay platform represents a functional assay, the following conditions were analyzed, untreated, LPS-priming and priming-activation by LPS+ATP. Furthermore, the effects of selected reference compounds on the innate immune responses were tested, i.e. CRID3/MCC950 (NLRP3 inflammasome inhibitor), P22077 (ubiquitin protease inhibitor), 4SC202/Domatinostat (class 1 HDAC inhibitor), MI-2 (MALT1 inhibitor, NLRP3 inhibitor), A438079 (P2X7 receptor antagonist), VX-765 (CASP1 inhibitor) and Z-VAD-OH-FMK (pan-CASP inhibitor). The selection of the reference compounds was based on compound-specific effects on captured phenotypes obtained by the present technology (Table 3). Captured phenotypes obtained by multi-parametric and image-based readout constitute an added value provided by the present technology.

[2] = test system: inflammasome activation by LPS+ATP; experiment: Benchmark experiment, present assay platform (HTRF cytokine release plus image-based multi-parametric readouts), LPS priming and LPS+ATP activation; details: for TNFa-positive cells percentage: LPS and LPS_Activator conditions, vs DMSO; for inflammasome activation / percentage of IL1beta-positive cells / IL1beta release: LPS+ATP (LPS_Activator); for IL1beta release: vs DMSO control
Source text: as §1, §2, §3

PBMC = experiment: De-risking of cyclooxygenase (COX)-modulators (pain-killers) in the PBMC test system: image-based and supernatant cytokine readouts; details: for alteration of the collective phenotypic signature: 54 COX-modulators, three independent experiments, normalized to untreated control
Procedure: 54 pain-killers were tested in three independent experiments. […] The results were normalized to the untreated control group. Image-based assay read outs: a) “Active”, ratio of cells presenting mounted inflammasome, b) “TNFaPosRate”, ratio of cells showing intracellular TNFalpha expression, c) “TNFa specs/cell”, number of TNFalpha spots within TNFalpha positive cells, d) “Cells”, total number of cells. Homogenous assay read outs: e) “TNFa see”, TNFalpha concentration in the supernatant in ng/ml, f) “IL1b”, IL1beta concentration in the supernatant in ng/ml.
54 compounds were tested, which are known as cyclooxygenase (COX)-Modulators. Most of the compounds were already on market or in drug development process. A unique collective phenotypic signature of this drug class was identified. There was no alteration of assay parameters, meaning that common Cox-modulators should have no effect on the innate immune response in the test system provided by the present invention. […] Bufexamac was withdrawn from market 2010 due to allergic reaction and was further proposed in 2017 as co-treatment agent (TNFa binder) for modulators of TNFa synthesis. […] Xanthohumol, a chalcone isolated from Humulus lupus, is currently in clinical trial phase 1. Currently, there is no information about induced adverse effects.
The adverse effects of all three compounds were not identified during the safety/toxicity assessment in preclinical lead optimization or in clinical trials. Current safety testing during preclinical drug development was not able to detect the adverse modulation of innate immune response.

Compound | IL1b release (Luminex) [1] | inflammasome activation ([2]; image-based) | percentage of IL1beta-positive cells ([2]; image-based) | IL1beta release [2] | alteration of the collective phenotypic signature (PBMC) | also measured
Clc1cccc(-c2nnnn2Cc2cccnc2)c1Cl [A-438079] | block | complete block | marked increase | block | – | TNFa-positive cells percentage [2]: no impact
CCCCOc1ccc(CC(=O)NO)cc1 [Bufexamac] | – | – | – | – | show alteration of the collective phenotypic signature | TNFa binder effect (PBMC): effect was proofed
CC(C)(O)c1coc(S(=O)(=O)NC(=O)Nc2c3c(cc4c2CCC4)CCC3)c1 [CRID3, CRID3/MCC950] | block | complete block | marked increase | complete block | – | –
COCCOc1nc(-c2ccc(Cl)c(Cl)c2)n(-c2ccc(NC(=O)CCl)cc2)n1 [MI-2] | block | complete block | marked increase | complete block | – | TNFa release (Luminex) [1]: partial block of TNFa release with limited resolution; TNFa-positive cells percentage [2]: not affected; percentage of TNFa-multispot-positive cells ([2]; image-based): robust increase; TNFa release ([2]; present assay): partial block
CC(C(=O)O)c1ccc(C(=O)c2cccs2)cc1 (centres unmarked) [Subrofen] | – | – | – | – | show alteration of the collective phenotypic signature | cytokine release (II. 1b) (PBMC; supernatant): strong decrease
COc1cc(O)c(CC=C(C)C)c(O)c1C(=O)/C=C/c1ccc(O)cc1 [Xanthohumol] | – | – | – | – | show alteration of the collective phenotypic signature | –
Z-VAD-OH-FMK | block | did not show any effect | low percentage | block | – | –
